Values after ≈ are worked out from the molar mass of the structure shown. Peptide text beside a SMILES is read from it. * marks the point of attachment. Cbz = O=C(OCc1ccccc1)*
Assays:
Leishmania guyanensis = assay: Antileishmanial activity against Leishmania guyanensis promastigotes after 48 hrs by MTT method; type: functional, organism-based
Leishmania major = assay: Antileishmanial activity against Leishmania major promastigotes after 48 hrs by MTT method; type: functional, organism-based
Leishmania panamensis = assay: Antileishmanial activity against Leishmania panamensis promastigotes after 48 hrs by MTT method; type: functional, organism-based
[1] = Cytotoxicity against african green monkey COS7 cells by XTT method; type: cell-based; details: Chlorocebus aethiops, COS-7
Huh-7 = assay: Cytotoxicity against human HuH7 cells by XTT method; type: functional, cell-based

| SMILES | IC50 (Leishmania guyanensis) [µg/mL] | IC50 (Leishmania major) [µg/mL] | IC50 (Leishmania panamensis) [µg/mL] | IC50 [1] | IC50 (Huh-7) |
| --- | --- | --- | --- | --- | --- |
| CC1(O)CCCC2(C)Cc3c(O)ccc(O)c3CC12 (racemic) | 3 (≈ 11.4 µM) | 2.7 (≈ 10.3 µM) | 1.8 (≈ 6.86 µM) | > 100 µg/mL | 41.7 µg/mL |
| CC(C)C[C@@H](C=O)NC(=O)[C@H](CC(C)C)NC(=O)[C@H](CC(C)C)NC(=O)OCc1ccccc1 [MG-132] (Cbz-Leu-Leu-Leu-aldehyde) | – | – | – | < 10 µM | < 10 µM |
| C/C(C=O)=C\CC/C(C)=C/Cc1cc(O)ccc1O [ALLIODORIN] | 2 (≈ 7.68 µM) | 7 (≈ 26.9 µM) | 1.8 (≈ 6.91 µM) | 31.9 µg/mL | 44.8 µg/mL |
| C=C[C@@]1(C)Cc2c(OC(C)=O)ccc(OC(C)=O)c2C[C@H]1C(=C)C [ACETYLCORDIAQUINOL C] | – | 1.4 (≈ 4.26 µM) | – | 20.1 µg/mL | 60.9 µg/mL |
| CC(=O)Oc1ccc(OC(C)=O)c2c1CC1(C)CCC(=O)C(C)=C1C2=O (racemic) | – | 80.4 (≈ 226 µM) | – | 50.7 µg/mL | 65.5 µg/mL |
| C=C1CCC[C@@]2(C)CC3=C(C[C@@H]12)C(=O)C=CC3=O [CORDIACHROME B] | – | 2.5 (≈ 10.3 µM) | – | 14.6 µg/mL | 71.5 µg/mL |
| C=C[C@@]1(C)CC2=C(C[C@H]1C(=C)C)C(=O)C=CC2=O [Cordiachrome C] | 6 (≈ 24.8 µM) | 21.1 (≈ 87.1 µM) | 5.5 (≈ 22.7 µM) | – | – |
| C/C(C=O)=C\CCC(C)(O)/C=C\c1cc(O)ccc1O (racemic) | – | > 25 | – | > 100 µg/mL | > 100 µg/mL |
| CC1=C2C(=O)c3c(O)ccc(O)c3CC2(C)CCC1=O (racemic) | 7 (≈ 25.7 µM) | 81.4 (≈ 299 µM) | 13 (≈ 47.7 µM) | 51.7 µg/mL | 71.8 µg/mL |
| CC1=CCC[C@@]2(C)CC3=C(C[C@@H]12)C(=O)C=CC3=O [CORDIACHROME A] | – | 4.1 (≈ 16.9 µM) | – | 22.5 µg/mL | 61.1 µg/mL |
| CC1=C2C(=O)c3c(OC(=O)c4ccc(Br)cc4)ccc(OC(=O)c4ccc(Br)cc4)c3CC2(C)CCC1=O (racemic) | – | 23.5 (≈ 36.8 µM) | – | > 100 µg/mL | > 100 µg/mL |
| C[C@@H]1[C@H](O)[C@@H](C)/C=C/C=C/C=C/C=C/C=C/C=C/C=C/[C@H](O[C@@H]2O[C@H](C)[C@@H](O)[C@H](N)[C@@H]2O)C[C@@H]2O[C@](O)(C[C@@H](O)C[C@@H](O)[C@H](O)CC[C@@H](O)C[C@@H](O)CC(=O)O[C@H]1C)C[C@H](O)[C@H]2C(=O)O [AMPHOTERICIN B] | < 0.1 | < 0.1 | < 0.1 | – | – |
| C=C[C@@]1(C)Cc2c(O)ccc(O)c2C[C@H]1C(=C)C | – | 4.5 (≈ 18.4 µM) | – | – | – |

— ChEMBL document CHEMBL1142411, “Antileishmanial compounds from Cordia fragrantissima collected in Burma (Myanmar)” (J Nat Prod, 2008)
